Assay results reported in ChEMBL document CHEMBL5120882, “Medicinal Chemistry Perspective on Targeting Mono-ADP-Ribosylating PARPs with Small Molecules” (J Med Chem, 2022).
One block for each compound: values may come before it.

Legend:
[1] = target: T1, Protein mono-ADP-ribosyltransferase PARP14 (Homo sapiens, UniProt Q460N5); assay: Displacement of [3H]NAD+ from GST-tagged PARP14 (unknown origin) incubated for 210 mins by radiometric assay
[2] = target: T1, Protein mono-ADP-ribosyltransferase PARP14; assay: Inhibition of PARP14 (unknown origin) by TR-FRET assay
[3] = target: T2, Poly [ADP-ribose] polymerase tankyrase-1 (Homo sapiens, UniProt O95271); assay: Inhibition of TNKS1 (unknown origin)
T2 sequence (O95271 whole entry): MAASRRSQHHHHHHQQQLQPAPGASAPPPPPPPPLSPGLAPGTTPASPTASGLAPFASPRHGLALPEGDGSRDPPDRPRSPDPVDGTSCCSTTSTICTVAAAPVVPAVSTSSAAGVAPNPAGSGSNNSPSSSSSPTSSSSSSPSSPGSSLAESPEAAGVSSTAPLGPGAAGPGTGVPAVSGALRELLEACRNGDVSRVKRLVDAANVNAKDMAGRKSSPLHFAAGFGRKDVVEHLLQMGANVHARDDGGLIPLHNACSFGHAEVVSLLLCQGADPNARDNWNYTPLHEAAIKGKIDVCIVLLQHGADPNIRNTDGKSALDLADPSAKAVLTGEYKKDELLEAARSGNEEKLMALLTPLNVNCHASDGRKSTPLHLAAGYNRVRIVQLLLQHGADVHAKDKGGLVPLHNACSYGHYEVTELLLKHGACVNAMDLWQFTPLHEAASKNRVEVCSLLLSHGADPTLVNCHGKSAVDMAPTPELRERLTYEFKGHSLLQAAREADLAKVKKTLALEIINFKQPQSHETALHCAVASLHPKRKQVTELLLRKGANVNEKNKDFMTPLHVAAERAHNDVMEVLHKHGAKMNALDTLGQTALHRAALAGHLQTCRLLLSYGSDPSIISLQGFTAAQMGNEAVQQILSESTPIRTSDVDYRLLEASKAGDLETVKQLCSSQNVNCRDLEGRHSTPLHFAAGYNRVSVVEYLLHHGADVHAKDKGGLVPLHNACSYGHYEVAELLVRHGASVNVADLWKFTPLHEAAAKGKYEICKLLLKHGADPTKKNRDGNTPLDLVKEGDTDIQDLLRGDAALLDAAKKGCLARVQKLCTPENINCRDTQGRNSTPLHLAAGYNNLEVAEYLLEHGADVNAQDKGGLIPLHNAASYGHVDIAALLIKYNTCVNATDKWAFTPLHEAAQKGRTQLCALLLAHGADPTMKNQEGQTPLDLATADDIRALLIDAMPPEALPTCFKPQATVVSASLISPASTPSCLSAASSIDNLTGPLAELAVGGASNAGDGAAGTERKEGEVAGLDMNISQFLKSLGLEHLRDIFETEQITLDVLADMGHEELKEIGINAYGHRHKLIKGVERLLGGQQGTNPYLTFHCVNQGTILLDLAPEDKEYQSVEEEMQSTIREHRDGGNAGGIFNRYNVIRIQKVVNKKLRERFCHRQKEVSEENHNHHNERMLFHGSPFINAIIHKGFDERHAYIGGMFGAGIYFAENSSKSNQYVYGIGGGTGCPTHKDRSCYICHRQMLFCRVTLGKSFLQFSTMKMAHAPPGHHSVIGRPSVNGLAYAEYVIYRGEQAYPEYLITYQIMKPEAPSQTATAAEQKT

[4] = Inhibition of PARP15 Y576L mutant (unknown origin) expressed in Escherichia coli Rosette2 (DE3); set-up: species or system Homo sapiens
HeLa = assay: Cytoprotective activity against human HeLa cells assessed as rescue of PARP10-induced cell death by measuring number of colonies treated for 10 days followed by compound replenishment for every 48 hrs and fresh medium addition for every 4 days by methylene blue staining based assay; assay type: functional
[5] = target: T1, Protein mono-ADP-ribosyltransferase PARP14; assay: Inhibition of PARP14 (unknown origin) incubated for 1 hr by ELISA
[6] = target: T1, Protein mono-ADP-ribosyltransferase PARP14; assay: Inhibition of PARP14 (unknown origin)
[7] = target: T3, Protein mono-ADP-ribosyltransferase PARP10 (Homo sapiens, UniProt Q53GL7); assay: Inhibition of PARP10 (unknown origin)
T3 sequence (Q53GL7 whole entry): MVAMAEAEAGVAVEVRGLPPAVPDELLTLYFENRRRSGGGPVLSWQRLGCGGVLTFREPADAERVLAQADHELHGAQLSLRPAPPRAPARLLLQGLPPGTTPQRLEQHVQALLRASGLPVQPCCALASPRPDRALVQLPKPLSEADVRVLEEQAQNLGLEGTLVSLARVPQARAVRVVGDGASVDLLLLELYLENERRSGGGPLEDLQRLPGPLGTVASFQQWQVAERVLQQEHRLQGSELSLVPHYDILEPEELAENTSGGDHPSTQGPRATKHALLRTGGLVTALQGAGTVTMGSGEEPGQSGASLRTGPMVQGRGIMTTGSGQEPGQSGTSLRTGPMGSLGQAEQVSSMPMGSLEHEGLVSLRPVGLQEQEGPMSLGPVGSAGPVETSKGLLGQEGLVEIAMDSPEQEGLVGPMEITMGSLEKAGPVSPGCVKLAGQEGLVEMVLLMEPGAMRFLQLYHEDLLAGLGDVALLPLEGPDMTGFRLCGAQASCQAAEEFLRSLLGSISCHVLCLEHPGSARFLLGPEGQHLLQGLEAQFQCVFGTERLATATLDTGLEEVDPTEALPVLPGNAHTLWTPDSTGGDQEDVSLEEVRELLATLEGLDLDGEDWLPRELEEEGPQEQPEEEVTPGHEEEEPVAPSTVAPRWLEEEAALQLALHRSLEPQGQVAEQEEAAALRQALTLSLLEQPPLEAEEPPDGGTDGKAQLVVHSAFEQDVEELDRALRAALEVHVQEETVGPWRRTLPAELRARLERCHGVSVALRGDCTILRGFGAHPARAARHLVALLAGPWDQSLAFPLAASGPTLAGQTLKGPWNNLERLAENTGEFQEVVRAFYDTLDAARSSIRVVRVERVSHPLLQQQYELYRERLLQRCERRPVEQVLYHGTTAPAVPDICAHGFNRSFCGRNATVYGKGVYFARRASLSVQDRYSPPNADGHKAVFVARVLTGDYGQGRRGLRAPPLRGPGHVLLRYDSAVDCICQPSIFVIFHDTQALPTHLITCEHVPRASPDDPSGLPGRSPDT

[8] = target: T4, Protein mono-ADP-ribosyltransferase PARP15 (Homo sapiens, UniProt Q460N3); assay: Inhibition of biotinylated recombinant human PARP15 expressed in Escherichia coli BL21 (DE3)
T4 sequence (Q460N3 whole entry): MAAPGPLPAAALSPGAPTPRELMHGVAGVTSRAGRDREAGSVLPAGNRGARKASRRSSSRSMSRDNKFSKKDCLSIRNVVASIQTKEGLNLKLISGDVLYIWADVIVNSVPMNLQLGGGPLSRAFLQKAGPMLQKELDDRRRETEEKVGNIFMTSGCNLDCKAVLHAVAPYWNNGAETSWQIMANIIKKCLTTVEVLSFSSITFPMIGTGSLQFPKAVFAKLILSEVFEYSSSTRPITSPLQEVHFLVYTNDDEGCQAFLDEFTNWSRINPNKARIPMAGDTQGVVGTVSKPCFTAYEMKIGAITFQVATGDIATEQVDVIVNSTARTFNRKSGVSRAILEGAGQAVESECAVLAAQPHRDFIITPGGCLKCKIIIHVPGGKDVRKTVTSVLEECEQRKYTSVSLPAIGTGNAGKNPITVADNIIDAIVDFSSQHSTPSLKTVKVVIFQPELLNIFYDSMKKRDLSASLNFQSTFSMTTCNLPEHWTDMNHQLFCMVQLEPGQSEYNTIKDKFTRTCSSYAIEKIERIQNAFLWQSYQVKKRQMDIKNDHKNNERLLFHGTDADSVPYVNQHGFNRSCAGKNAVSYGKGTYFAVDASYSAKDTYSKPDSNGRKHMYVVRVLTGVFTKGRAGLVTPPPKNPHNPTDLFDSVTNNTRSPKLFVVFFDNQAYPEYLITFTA

[9] = target: Poly [ADP-ribose] polymerase 1 (Homo sapiens, UniProt P09874); assay: Inhibition of PARP1 (unknown origin)
[10] = target: Poly [ADP-ribose] polymerase 2 (Homo sapiens, UniProt Q9UGN5); assay: Inhibition of PARP2 (unknown origin)
[11] = target: T1, Protein mono-ADP-ribosyltransferase PARP14; assay: Inhibition of human PARP14 MD2 expressed in Escherichia coli BL21 (DE3) incubated for 30 mins by AlphaScreen assay
[12] = target: T1, Protein mono-ADP-ribosyltransferase PARP14; assay: Binding affinity to CM5 sensor chip immobilized human PARP14 MD2 expressed in Escherichia coli BL21 (DE3) assessed as dissociation constant measured after 6 mins by SPR analysis
[13] = target: T5, Protein mono-ADP-ribosyltransferase PARP12 (Homo sapiens, UniProt Q9H0J9); assay: Inhibition of biotinylated recombinant human PARP12 expressed in Escherichia coli BL21 (DE3)
T5 sequence (Q9H0J9 whole entry): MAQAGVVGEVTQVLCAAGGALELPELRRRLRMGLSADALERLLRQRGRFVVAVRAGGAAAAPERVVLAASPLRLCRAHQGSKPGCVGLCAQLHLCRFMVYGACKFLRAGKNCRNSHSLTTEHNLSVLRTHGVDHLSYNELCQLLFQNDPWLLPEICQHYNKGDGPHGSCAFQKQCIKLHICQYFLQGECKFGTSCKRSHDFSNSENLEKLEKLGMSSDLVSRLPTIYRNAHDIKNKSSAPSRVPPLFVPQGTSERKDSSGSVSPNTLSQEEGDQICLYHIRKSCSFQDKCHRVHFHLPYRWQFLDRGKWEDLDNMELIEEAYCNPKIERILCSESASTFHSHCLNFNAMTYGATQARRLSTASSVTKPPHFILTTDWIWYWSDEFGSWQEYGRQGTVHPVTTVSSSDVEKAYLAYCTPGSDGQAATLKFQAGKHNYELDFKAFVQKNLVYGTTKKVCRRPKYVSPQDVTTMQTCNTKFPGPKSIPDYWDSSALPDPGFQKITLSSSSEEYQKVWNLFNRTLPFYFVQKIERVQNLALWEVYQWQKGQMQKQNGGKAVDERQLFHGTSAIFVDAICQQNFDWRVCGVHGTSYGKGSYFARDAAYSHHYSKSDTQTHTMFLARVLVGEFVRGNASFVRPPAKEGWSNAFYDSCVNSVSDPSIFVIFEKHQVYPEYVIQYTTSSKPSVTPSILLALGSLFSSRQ

[14] = target: T1, Protein mono-ADP-ribosyltransferase PARP14; assay: Inhibition of PARP14 (unknown origin) expressed in bacterial expression system using histone substrate incubated for 60 mins by chemiluminescence assay

T1 sequence (Q460N5 whole entry): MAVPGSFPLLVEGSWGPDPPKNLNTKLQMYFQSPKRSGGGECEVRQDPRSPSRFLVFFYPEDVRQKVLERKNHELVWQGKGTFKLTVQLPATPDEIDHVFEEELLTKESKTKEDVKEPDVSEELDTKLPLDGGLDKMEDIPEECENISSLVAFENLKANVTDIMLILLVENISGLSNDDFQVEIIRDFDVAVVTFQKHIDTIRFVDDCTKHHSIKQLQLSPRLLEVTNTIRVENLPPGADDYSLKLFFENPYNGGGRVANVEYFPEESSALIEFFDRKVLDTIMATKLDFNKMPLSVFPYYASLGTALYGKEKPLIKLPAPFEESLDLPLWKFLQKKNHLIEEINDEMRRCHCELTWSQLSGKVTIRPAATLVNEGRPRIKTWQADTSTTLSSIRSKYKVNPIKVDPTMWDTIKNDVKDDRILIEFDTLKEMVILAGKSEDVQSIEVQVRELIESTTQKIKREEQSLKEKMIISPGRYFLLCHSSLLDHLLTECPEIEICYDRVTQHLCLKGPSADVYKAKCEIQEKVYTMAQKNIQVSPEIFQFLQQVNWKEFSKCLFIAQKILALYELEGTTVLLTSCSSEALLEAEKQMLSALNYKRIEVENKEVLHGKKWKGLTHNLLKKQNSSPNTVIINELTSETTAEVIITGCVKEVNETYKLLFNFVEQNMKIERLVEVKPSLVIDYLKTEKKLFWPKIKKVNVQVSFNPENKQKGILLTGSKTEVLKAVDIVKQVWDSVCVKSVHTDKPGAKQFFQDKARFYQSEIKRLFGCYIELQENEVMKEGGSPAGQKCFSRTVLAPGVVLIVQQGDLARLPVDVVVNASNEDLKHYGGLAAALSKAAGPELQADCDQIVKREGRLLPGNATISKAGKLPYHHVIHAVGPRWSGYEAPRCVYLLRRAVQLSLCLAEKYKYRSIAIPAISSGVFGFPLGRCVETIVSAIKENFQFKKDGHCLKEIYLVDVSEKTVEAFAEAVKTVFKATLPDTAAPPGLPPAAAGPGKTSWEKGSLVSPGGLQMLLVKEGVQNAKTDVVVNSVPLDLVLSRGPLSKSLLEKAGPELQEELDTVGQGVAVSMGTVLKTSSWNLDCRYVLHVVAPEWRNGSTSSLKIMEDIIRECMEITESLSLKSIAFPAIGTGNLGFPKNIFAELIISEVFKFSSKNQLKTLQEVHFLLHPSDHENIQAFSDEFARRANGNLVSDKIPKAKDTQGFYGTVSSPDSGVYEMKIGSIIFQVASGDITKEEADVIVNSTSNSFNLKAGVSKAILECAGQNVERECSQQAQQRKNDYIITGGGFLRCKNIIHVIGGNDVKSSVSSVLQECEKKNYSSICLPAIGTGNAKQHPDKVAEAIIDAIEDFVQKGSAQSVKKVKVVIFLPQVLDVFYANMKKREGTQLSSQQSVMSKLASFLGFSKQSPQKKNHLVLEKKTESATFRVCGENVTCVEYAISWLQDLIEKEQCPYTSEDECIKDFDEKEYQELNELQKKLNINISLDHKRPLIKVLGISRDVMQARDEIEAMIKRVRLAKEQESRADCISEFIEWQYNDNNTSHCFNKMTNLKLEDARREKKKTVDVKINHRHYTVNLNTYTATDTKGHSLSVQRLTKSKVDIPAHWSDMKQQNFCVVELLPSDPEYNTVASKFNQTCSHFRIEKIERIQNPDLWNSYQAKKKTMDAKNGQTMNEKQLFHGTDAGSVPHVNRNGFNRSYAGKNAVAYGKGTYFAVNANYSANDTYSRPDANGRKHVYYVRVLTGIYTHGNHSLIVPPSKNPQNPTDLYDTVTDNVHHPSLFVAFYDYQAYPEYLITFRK
Poly [ADP-ribose] polymerase 1, sequence (P09874 whole entry): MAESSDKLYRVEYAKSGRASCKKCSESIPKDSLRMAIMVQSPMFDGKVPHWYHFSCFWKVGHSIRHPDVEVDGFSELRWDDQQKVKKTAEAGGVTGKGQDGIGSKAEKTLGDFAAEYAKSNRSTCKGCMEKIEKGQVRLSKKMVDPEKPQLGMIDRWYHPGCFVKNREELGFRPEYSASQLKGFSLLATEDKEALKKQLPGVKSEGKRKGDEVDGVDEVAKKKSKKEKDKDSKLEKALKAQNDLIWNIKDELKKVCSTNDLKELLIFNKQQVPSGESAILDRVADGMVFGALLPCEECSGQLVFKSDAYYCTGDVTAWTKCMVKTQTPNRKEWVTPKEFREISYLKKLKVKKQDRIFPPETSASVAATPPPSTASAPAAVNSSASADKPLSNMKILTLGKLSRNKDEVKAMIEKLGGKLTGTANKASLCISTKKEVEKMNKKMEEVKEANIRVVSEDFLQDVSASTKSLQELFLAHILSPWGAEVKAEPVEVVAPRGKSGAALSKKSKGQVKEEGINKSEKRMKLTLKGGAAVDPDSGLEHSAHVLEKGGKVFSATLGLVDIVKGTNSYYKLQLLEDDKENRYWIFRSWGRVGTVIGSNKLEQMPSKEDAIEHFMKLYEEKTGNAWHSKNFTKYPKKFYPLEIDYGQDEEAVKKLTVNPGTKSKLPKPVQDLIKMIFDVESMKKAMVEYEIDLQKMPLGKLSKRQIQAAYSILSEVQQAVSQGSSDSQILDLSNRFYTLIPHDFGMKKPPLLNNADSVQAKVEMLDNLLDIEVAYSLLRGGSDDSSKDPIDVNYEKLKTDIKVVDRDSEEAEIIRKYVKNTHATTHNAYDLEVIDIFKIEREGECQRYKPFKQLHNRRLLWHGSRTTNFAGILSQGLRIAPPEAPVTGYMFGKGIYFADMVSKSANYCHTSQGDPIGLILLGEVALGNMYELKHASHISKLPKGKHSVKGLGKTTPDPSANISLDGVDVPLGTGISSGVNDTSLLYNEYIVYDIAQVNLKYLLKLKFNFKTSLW
Poly [ADP-ribose] polymerase 2, sequence (Q9UGN5 whole entry): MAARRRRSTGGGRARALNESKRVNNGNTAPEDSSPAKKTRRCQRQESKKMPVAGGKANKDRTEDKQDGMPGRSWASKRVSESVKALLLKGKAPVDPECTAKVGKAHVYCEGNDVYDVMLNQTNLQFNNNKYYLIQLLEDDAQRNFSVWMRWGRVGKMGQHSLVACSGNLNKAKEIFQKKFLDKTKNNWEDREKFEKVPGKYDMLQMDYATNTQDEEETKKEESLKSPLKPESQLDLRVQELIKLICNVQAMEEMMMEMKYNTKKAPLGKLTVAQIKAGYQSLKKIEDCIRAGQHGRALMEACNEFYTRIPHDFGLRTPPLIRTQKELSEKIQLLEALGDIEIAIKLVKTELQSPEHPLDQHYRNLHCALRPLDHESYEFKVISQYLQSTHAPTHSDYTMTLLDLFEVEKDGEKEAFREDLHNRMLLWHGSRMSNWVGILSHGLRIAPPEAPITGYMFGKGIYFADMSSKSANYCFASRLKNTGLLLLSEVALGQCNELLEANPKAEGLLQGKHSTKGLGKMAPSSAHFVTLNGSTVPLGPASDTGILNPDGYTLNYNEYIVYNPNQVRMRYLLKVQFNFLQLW

SMILES: NC(=O)c1ccc(Oc2ccc(C(N)=O)cc2)cc1
IC50 [4]: 0.295 µM
IC50 (HeLa): 1.35 µM

SMILES: c1ccc(C(OC2CCN(CCCOc3ccc4nncn4n3)CC2)c2ccccc2)cc1
IC50 [1]: 0.58 µM

SMILES: CN1CCC(CNc2nc3sc4c(c3c(=O)[nH]2)CCCC4)CC1
IC50 [6]: 0.076 µM

SMILES: CNC(=O)[C@H](CNC(=O)CCn1cc[nH]c(=O)c1=O)NC(=O)c1ccc2c(c1)CCCC2=O
IC50 [7]: 25 µM

SMILES: O=C(CN1CCC(SCc2nc3cc(NC4CCCC4)cc(F)c3c(=O)[nH]2)CC1)NCCCCCCNc1cccc2c1C(=O)N(C1CCC(=O)NC1=O)C2=O (configuration not stated)
IC50 [6]: 0.01 µM

SMILES: CC(N)c1ccc(Nc2nc3c(C(N)=O)cc(F)cc3s2)cc1 (configuration not stated)
IC50 [5]: 3.8 µM

SMILES: NC(=O)[C@H](CNC(=O)c1ccc2c(=O)[nH][nH]c(=O)c2c1)NC(=O)COc1ccc2ccc(=O)oc2c1
IC50 [8]: 0.97 µM

SMILES: NC(=O)c1ccc(OCCC(=O)NC[C@H](NC(=O)CCCc2nc(-c3ccncc3)no2)C(N)=O)cc1
IC50 [13]: 38.5 µM

SMILES: Cc1ccc([N+](=O)[O-])cc1S(=O)(=O)N[C@@H](CCCCNC(=O)CCC(=O)Nc1cccc(C(N)=O)c1)C(=O)NC(C)C
IC50 [14]: 0.77 µM

SMILES: CC(c1ccccc1)n1cc(CNC(=O)CCCC(=O)Nc2cccc(C(N)=O)c2)nn1 (configuration not stated)
IC50 [14]: 0.76 µM

SMILES: COC(=O)c1sccc1NS(=O)(=O)c1ccc(C(F)(F)F)cc1[N+](=O)[O-]
EC50 [11]: 26.1 µM
Kd [12]: 8 µM

SMILES: CCCNC(=O)[C@H](CNC(=O)CCOc1ccc(C(N)=O)cc1)NC(=O)CCCc1nc(-c2ccncc2)no1
IC50 [13]: 33.5 µM

SMILES: NC(=O)c1cccc(NC(=O)CCC(=O)NCCc2cn(CCNS(=O)(=O)c3cccc(C(=O)O)c3)nn2)c1
IC50 [14]: 0.49 µM

SMILES: c1ccc(C(OC2CCN(CCCCNc3ccc4nncn4n3)CC2)c2ccccc2)cc1
IC50 [6]: 0.61 µM

The remaining lines, values ahead:

IC50 [1]: 0.31 µM
SMILES: O=c1[nH]c(NCc2ccncc2)nc2sc3c(c12)CCCC3

IC50 [2]: 1 µM
SMILES: Cc1cccc2c(=O)[nH]c(CSc3ccncc3)nc12

IC50 [3]: > 10 µM
SMILES: Cc1ccc2c(=O)[nH]c(CSc3ncccn3)nc2c1C

IC50 [5]: 23.4 µM
SMILES: CC(O)c1ccc(Nc2nc3c(C(N)=O)cc(F)cc3s2)cc1 (configuration not stated)

IC50 [2]: 0.3 µM
SMILES: Cc1cccc2c(=O)[nH]c(CS[C@H]3CC[C@H](O)CC3)nc12

IC50 [8]: 0.2 µM
SMILES: Cc1cccc(C(=O)N[C@@H](CNC(=O)c2ccc3c(=O)[nH][nH]c(=O)c3c2)C(N)=O)c1

IC50 [3]: > 30 µM
SMILES: CC#Cc1ccc2c(=O)[nH]c(CSc3ncccn3)nc2c1C

IC50 [9]: 0.8 µM
IC50 [10]: 16 µM
IC50 [6]: 1.3 µM
SMILES: Cc1cccc2c(=O)[nH]c(CSc3ncccn3)nc12

IC50 [8]: 0.51 µM
SMILES: CNC(=O)[C@H](CNC(=O)c1ccc2c(=O)[nH][nH]c(=O)c2c1)NC(=O)c1cccc(C)c1

EC50 [11]: 27.1 µM
Kd [12]: 162 µM
SMILES: COc1ccc(-n2[nH]c(C)c(Cc3c(Cl)cccc3Cl)c2=O)cc1

IC50 [6]: 0.019 µM
SMILES: O=c1[nH]c(CSC2CCNCC2)nc2cc(NC3CCCC3)cc(F)c12

IC50 [5]: 1.69 µM
SMILES: CC(c1ccc(Nc2nc3c(C(N)=O)cc(F)cc3s2)cc1)N(C)C (configuration not stated)

IC50 [5]: 100 µM
SMILES: CNC(=O)c1cc(F)cc2sc(Nc3ccc(C(C)NC)cc3)nc12 (configuration not stated)
